Measurements: patent US11795177B2, “Substituted quinoline analogs as aldehyde dehydrogenase 1A1 (ALDH1A1) inhibitors” (THE UNITED STATES OF AMERICA, AS REPRESENTED BY THE …, priority 2017, dated 2023)

Tested on: MIA PaCa-2 cells
Test: MIA PaCa2 cell-based assay (1,536-well high-content imaging ALDEFLUOR assay)
Parameters: species or system human
Conditions: Homo sapiens, 0.5 h, ALDEFLUOR BAAA substrate 500 nM, 30 minutes
Procedure: Example 359. MIA PaCa2 Cell-Based Assay (In Vitro Assay)
1,536-Well High-Content Imaging ALDEFLUOR Assay
The ALDEFLUOR™ kit was purchased from […] Technologies (Vancouver, Canada; #01700). MIA PaCa-2 cells (5 μL; 1,000 cells/well) were dispensed into black, optical quality (cyclic olefin copolymer) clear bottom, medium binding TC treated 1,536-well plates (Aurora Microplates, Whitefish Mont.) using a Multidrop Combi dispenser (ThermoFisher) and incubated overnight (37° C., 5% CO2, 85% RH). Media (RPMI 1640 (Life Technologies, Carlsbad, Calif.), supplemented with 2 mM L-Glutamine (Life Technologies), 10% HyClone™ fetal bovine serum (FBS, GE Healthcare, Piscataway, N.J.) and 100 U/mL penicillin and 100 μg/mL streptomycin (Life Technologies)) was subsequently removed by centrifuging plates upside down using a plate adaptor to collect media. A solution of BAAA substrate ([…] Technologies) and Hoechst 33342 (ThermoFisher, final concentrations of 500 nM and 0.5 nM, respectively) in ALDEFLUOR™ buffer ([…] Technologies #01700) was dispensed onto cells using a Multidrop Combi followed by immediate transfer (23 nL) of compound or control solutions using a Wako Pin-tool (final percentage of DMSO in the cell plates was 0.5%). Unless otherwise noted, all compounds were assayed as 16-point dilutions spanning a final concentration range of 1.4 nM to 47.8 μM. The neutral and positive assay controls were DMSO and DEAB (4.6 μM), respectively. Cells were incubated for 30 minutes or the indicated amount of time at 37° C., 5% CO2, 85% RH to allow the conversion of BAAA into BAA. Supernatant was subsequently removed by centrifugation as described above, then ALDEFLUOR™ buffer (3 μl) was dispensed by Multidrop Combi before imaging on an IN Cell 2200 (GE Healthcare).
The above assay was modified for an online robotic screening system. After cell plating and overnight incubation, 4 μL of media were removed using a 64-tip metal aspirator head on a Wako aspirator station, leaving 1 μL remaining in the well, followed by a 4 μL dispense of BAAA and Hoechst 33342 in ALDEFLUOR™ buffer, for a final concentration of 500 nM and 0.5 nM, respectively Immediately following the dispense, 23 nL of compound or control solutions were transferred using a Wako Pin-tool. Cells were incubated for 30 minutes at 37° C., 5% CO2, 85% RH, followed by a 4 μL media removal using the Wako aspirator, and a subsequent 3 μL addition of ALDEFLUOR™ buffer. Plates were then immediately read on the IN Cell 2200 as described below.
Image Acquisition and Analysis
For images captured on the IN Cell 2200 widefield automated microscope, a 10×0.45 NA Plan Apo objective lens was used to capture the entire well of the 1,536-well plate using standard DAPI (390/18×, 432/48 m) and FITC (475/28×, 525/48 m) filter sets at 50 msec and 100 msec exposures, respectively. Images were subsequently analyzed using IN Cell Investigator v1.6.2 analysis software's canned Multi-Target Analysis algorithm (GE Healthcare). Hoechst stained nuclei were identified using top hat segmentation with a minimum area of 75 μm^2 and sensitivity of 93. BAA-retaining cells captured via FITC channel, were identified using multiscale top hat segmentation with a minimum area of 100 μm^2 and a sensitivity setting of 16. […] Data were plotted using GraphPad Prism software (GraphPad, San Diego, Calif.).

Structure (SMILES) | IC50
CS(=O)(=O)N1CCN(c2c(C(=O)N3CCN(C(=O)C4CC4)CC3)cnc3ccc(F)cc23)CC1 [Cpd. 303, (4-(cyclopropanecarbonyl)piperazin-1-yl)(6-fluoro-4-(4-(methylsulfonyl)piperazin-1-yl)quinolin-3-yl)methanone] | 1000 to 10000 nM
COc1ccc2c(N3CCC4(CC3)OCCO4)c(C(=O)N3CCN(C(=O)C4CC4)CC3)cnc2c1 [Example 47, (4-(cyclopropanecarbonyl)piperazin-1-yl)(7-methoxy-4-(1,4-dioxa-8-azaspiro[4.5]decan-8-yl)quinolin-3-yl)methanone] | 1000 to 10000 nM
CS(=O)(=O)N1CCN(C(=O)c2cnc3ccc(F)cc3c2-c2ccc(C3(C#N)CCCC3)cc2)CC1 [Cpd. 309, 1-(4-(6-fluoro-3-(4-(methylsulfonyl)piperazine-1-carbonyl)quinolin-4-yl)phenyl)cyclopentanecarbonitrile] | < 500 nM
CC1(C#N)CCN(c2c(C(=O)N3CCN(C(=O)C4CC4)CC3)cnc3ccc(F)cc23)CC1 [Example 64, 1-(3-(4-(cyclopropanecarbonyl)piperazine-1-carbonyl)-6-fluoroquinolin-4-yl)-4-methylpiperidine-4-carbonitrile] | 1000 to 10000 nM
N#CC1(c2ccccc2)CCN(c2c(C(=O)Nc3cnn(CC(N)=O)c3)cnc3ccc(F)cc23)CC1 [Cpd. 352, N-(1-(2-amino-2-oxoethyl)-1H-pyrazol-4-yl)-4-(4-cyano-4-phenylpiperidin-1-yl)-6-fluoroquinoline-3-carboxamide] | < 500 nM
O=C(c1cnc2ccc(F)cc2c1N1CCC(F)CC1)N1CCN(C(=O)C2CC2)CC1 [Example 76, (4-(cyclopropanecarbonyl)piperazin-1-yl)(6-fluoro-4-(4-fluoropiperidin-1-yl)quinolin-3-yl)methanone] | > 10000 nM
CCC(=O)N1CCN(C(=O)c2cnc3ccc(F)cc3c2N2CCC(C)(C#N)CC2)CC1 [Example 91, 1-(6-fluoro-3-(4-propionylpiperazine-1-carbonyl)quinolin-4-yl)-4-methylpiperidine-4-carbonitrile] | 1000 to 10000 nM
CC1(C)CC=C(c2c(C(=O)N3CCN(C(=O)C4CC4)CC3)cnc3ccc(F)cc23)CC1 [Example 77, (4-(cyclopropanecarbonyl)piperazin-1-yl)(4-(4,4-dimethylcyclohex-1-en-1-yl)-6-fluoroquinolin-3-yl)methanone] | < 500 nM
CC(C)(C)c1ccc(-c2c(C(=O)N3CCN(S(C)(=O)=O)CC3)cnc3ccc(F)cc23)cc1 [Cpd. 306, (4-(4-(tert-butyl)phenyl)-6-fluoroquinolin-3-yl)(4-(methylsulfonyl)piperazin-1-yl)methanone] | < 500 nM
Cc1ccc2ncc(C(=O)N3CCN(C(=O)C4CC4)CC3)c(N3CCC4(CC3)OCCO4)c2c1 [Example 30, (4-(cyclopropanecarbonyl)piperazin-1-yl)(6-methyl-4-(1,4-dioxa-8-azaspiro[4.5]decan-8-yl)quinolin-3-yl)methanone] | 1000 to 10000 nM
O=C(c1cnc2ccc(F)cc2c1N1CCCCCC1)N1CCN(C(=O)C2CC2)CC1 [Example 71, (4-(azepan-1-yl)-6-fluoroquinolin-3-yl)(4-(cyclopropanecarbonyl)piperazin-1-yl)methanone] | 1000 to 10000 nM

The remaining lines, values ahead:

IC50 | Structure (SMILES)
1000 to 10000 nM | C=CS(=O)(=O)N1CCN(c2c(C(=O)N3CCN(S(C)(=O)=O)CC3)cnc3ccc(F)cc23)CC1 [Example 221, (6-fluoro-4-(4-(vinylsulfonyl)piperazin-1-yl)quinolin-3-yl)(4-(methylsulfonyl)piperazin-1-yl)methanone]
> 10000 nM | O=C(c1cnc2ccc(F)cc2c1N1CCC(Cc2ccccc2)CC1)N1CCN(C(=O)C2CC2)CC1 [Example 200, (4-(4-benzylpiperidin-1-yl)-6-fluoroquinolin-3-yl)(4-(cyclopropanecarbonyl)piperazin-1-yl)methanone]
1000 to 10000 nM | CC1(C#N)CCN(c2c(C(=O)N3CCC(S(C)(=O)=O)CC3)cnc3ccc(F)cc23)CC1 [Example 188, 1-(6-fluoro-3-(4-(methylsulfonyl)piperidine-1-carbonyl)quinolin-4-yl)-4-methylpiperidine-4-carbonitrile]
< 500 nM | CS(=O)(=O)N1CCN(C(=O)c2cnc3ccsc3c2N2CCC(C#N)(c3ccccc3)CC2)CC1 [Example 285, 1-(6-(4-(methylsulfonyl)piperazine-1-carbonyl)thieno[3,2-b]pyridin-7-yl)-4-phenylpiperidine-4-carbonitrile]
1000 to 10000 nM | CC1(C#N)CCN(c2c(C(=O)N3CCN(S(C)(=O)=O)CC3)cnc3sccc23)CC1 [Example 217, 4-methyl-1-(5-(4-(methylsulfonyl)piperazine-1-carbonyl)thieno[2,3-b]pyridin-4-yl)piperidine-4-carbonitrile]
< 500 nM | CN(C)C(=O)N1CCN(C(=O)c2cnc3ccc(F)cc3c2N2CCC(C#N)(c3ccccc3)CC2)CC1 [Example 272, 4-(4-(4-cyano-4-phenylpiperidin-1-yl)-6-fluoroquinoline-3-carbonyl)-N,N-dimethylpiperazine-1-carboxamide]
< 500 nM | CC(=O)C1(c2ccccc2)CCN(c2c(C(=O)N3CCN(S(C)(=O)=O)CC3)cnc3ccc(F)cc23)CC1 [Example 216, 1-(1-(6-fluoro-3-(4-(methylsulfonyl)piperazine-1-carbonyl)quinolin-4-yl)-4-phenylpiperidin-4-yl)ethanone]
< 500 nM | CS(=O)(=O)N1CCN(C(=O)c2cnc3ccc(F)cc3c2N2CCC(C#N)(c3ccccc3)CC2)CC1 [Example 209, 1-(6-fluoro-3-(4-(methylsulfonyl)piperazine-1-carbonyl)quinolin-4-yl)-4-phenylpiperidine-4-carbonitrile]
1000 to 10000 nM | CS(=O)(=O)N1CCN(C(=O)c2cnc3ccc(F)cc3c2N2CCC(C#N)(Cc3ccccc3)CC2)CC1 [Example 245, 4-benzyl-1-(6-fluoro-3-(4-(methylsulfonyl)piperazine-1-carbonyl)quinolin-4-yl)piperidine-4-carbonitrile]
< 500 nM | N#CC1(c2ccc(-c3c(C(=O)N4CCN(C(=O)C5CC5)CC4)cnc4ccc(Cl)cc34)cc2)CC1 [Example 294, 1-(4-(6-chloro-3-(4-(cyclopropanecarbonyl)piperazine-1-carbonyl)quinolin-4-yl)phenyl)cyclopropanecarbonitrile]
1000 to 10000 nM | CC1(C#N)CCN(c2c(C(=O)N3CCC(C(=O)C4CC4)CC3)cnc3ccc(F)cc23)CC1 [Example 194, 1-(3-(4-(cyclopropanecarbonyl)piperidine-1-carbonyl)-6-fluoroquinolin-4-yl)-4-methylpiperidine-4-carbonitrile]
< 500 nM | CN(C)C(=O)N1CCN(C(=O)c2cnc3ccc(F)cc3c2-c2ccc(C3(C#N)CC3)cc2)CC1 [Example 265, 4-(4-(4-(1-cyanocyclopropyl)phenyl)-6-fluoroquinoline-3-carbonyl)-N,N-dimethylpiperazine-1-carboxamide]
> 10000 nM | N#CC1(Cc2ccccc2)CCN(c2c(C(=O)N3CCN(C(=O)C4CC4)CC3)cnc3ccc(F)cc23)CC1 [Example 244, 4-benzyl-1-(3-(4-(cyclopropanecarbonyl)piperazine-1-carbonyl)-6-fluoroquinolin-4-yl)piperidine-4-carbonitrile]
1000 to 10000 nM | C[C@H]1CN(C(=O)c2cnc3ccc(F)cc3c2N2CCC(C)(C#N)CC2)CCN1S(C)(=O)=O [Example 226, (S)-1-(6-fluoro-3-(3-methyl-4-(methylsulfonyl)piperazine-1-carbonyl)quinolin-4-yl)-4-methylpiperidine-4-carbonitrile]
1000 to 10000 nM | CC1(C#N)CCN(c2c(C(=O)N3CCN(C(=O)C4CC4)CC3)cnc3sccc23)CC1 [Example 219, 1-(5-(4-(cyclopropanecarbonyl)piperazine-1-carbonyl)thieno[2,3-b]pyridin-4-yl)-4-methylpiperidine-4-carbonitrile]
